Data reported in US8192962B2, “Processes for detecting toxic substances” (Daikin Industries, Ltd., priority 2001, dated 2012).

System: Unknown protein yeast genes
Assay: DNA chip mRNA expression in yeast, unknown protein yeast genes (Table 1)
Type: cell-based, Saccharomyces cerevisiae S288C
Outline: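 In this screen, yeast in logarithmic growth are challenged for two hours with a toxic substance at a non-lethal inhibitory concentration. Their mRNA, converted to Cy3- or Cy5-labeled cDNA, hybridizes at 65° C. to a chip spanning every yeast gene, and expression is expressed as a ratio to untreated cells.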

## CCCCC[C@H](O)CC(=O)CCc1ccc(O)c(OC)c1 [(13), gingerol]
Yeast gene YAL018C
  The level of expressed mRNA in the presence of chemical substance/The level of expressed mRNA in the absence of chemical substance: 1.3
Yeast gene YAL049C, incubated two hours with substance
  The level of expressed mRNA in the presence of chemical substance/The level of expressed mRNA in the absence of chemical substance: 1.6
Yeast gene YAR031W
  The level of expressed mRNA in the presence of chemical substance/The level of expressed mRNA in the absence of chemical substance: 3.3
Yeast gene YAR047C
  The level of expressed mRNA in the presence of chemical substance/The level of expressed mRNA in the absence of chemical substance: 1.4
Yeast gene YAR064W
  The level of expressed mRNA in the presence of chemical substance/The level of expressed mRNA in the absence of chemical substance: 1.1
Yeast gene YBL048W
  The level of expressed mRNA in the presence of chemical substance/The level of expressed mRNA in the absence of chemical substance: 2.7
Yeast gene YBL049W
  The level of expressed mRNA in the presence of chemical substance/The level of expressed mRNA in the absence of chemical substance: 3.9
Yeast gene YBL107C
  The level of expressed mRNA in the presence of chemical substance/The level of expressed mRNA in the absence of chemical substance: 2.6
Yeast gene YBR012C
  The level of expressed mRNA in the presence of chemical substance/The level of expressed mRNA in the absence of chemical substance: 2.1
Yeast gene YBR062C
  The level of expressed mRNA in the presence of chemical substance/The level of expressed mRNA in the absence of chemical substance: 2.8
Yeast gene YBR124W
  The level of expressed mRNA in the presence of chemical substance/The level of expressed mRNA in the absence of chemical substance: 0.9
Yeast gene YBR287W
  The level of expressed mRNA in the presence of chemical substance/The level of expressed mRNA in the absence of chemical substance: 3.4
Yeast gene YCL056C
  The level of expressed mRNA in the presence of chemical substance/The level of expressed mRNA in the absence of chemical substance: 1.3
Yeast gene YCR007C
  The level of expressed mRNA in the presence of chemical substance/The level of expressed mRNA in the absence of chemical substance: 1.5
Yeast gene YCR013C
  The level of expressed mRNA in the presence of chemical substance/The level of expressed mRNA in the absence of chemical substance: 3.9
Yeast gene YDL027C
  The level of expressed mRNA in the presence of chemical substance/The level of expressed mRNA in the absence of chemical substance: 3.2
Yeast gene YDL046W
  The level of expressed mRNA in the presence of chemical substance/The level of expressed mRNA in the absence of chemical substance: 1.5
Yeast gene YDL110C
  The level of expressed mRNA in the presence of chemical substance/The level of expressed mRNA in the absence of chemical substance: 2.7
Yeast gene YDL169C
  The level of expressed mRNA in the presence of chemical substance/The level of expressed mRNA in the absence of chemical substance: 3.7
Yeast gene YDR090C
  The level of expressed mRNA in the presence of chemical substance/The level of expressed mRNA in the absence of chemical substance: 0.8
Yeast gene YDR128W
  The level of expressed mRNA in the presence of chemical substance/The level of expressed mRNA in the absence of chemical substance: 1.1
Yeast gene YDR133C
  The level of expressed mRNA in the presence of chemical substance/The level of expressed mRNA in the absence of chemical substance: 0.1
Yeast gene YDR210W
  The level of expressed mRNA in the presence of chemical substance/The level of expressed mRNA in the absence of chemical substance: 2.3
Yeast gene YDR250C
  The level of expressed mRNA in the presence of chemical substance/The level of expressed mRNA in the absence of chemical substance: 1.2
Yeast gene YDR366C
  The level of expressed mRNA in the presence of chemical substance/The level of expressed mRNA in the absence of chemical substance: 0.8
Yeast gene YDR435C
  The level of expressed mRNA in the presence of chemical substance/The level of expressed mRNA in the absence of chemical substance: 2.5
Yeast gene YDR476C
  The level of expressed mRNA in the presence of chemical substance/The level of expressed mRNA in the absence of chemical substance: 2.8
Yeast gene YER037W
  The level of expressed mRNA in the presence of chemical substance/The level of expressed mRNA in the absence of chemical substance: 3.0
Yeast gene YFL024C
  The level of expressed mRNA in the presence of chemical substance/The level of expressed mRNA in the absence of chemical substance: 0.9
Yeast gene YFR003C
  The level of expressed mRNA in the presence of chemical substance/The level of expressed mRNA in the absence of chemical substance: 2.5
Yeast gene YFR026C
  The level of expressed mRNA in the presence of chemical substance/The level of expressed mRNA in the absence of chemical substance: 1.1
Yeast gene YGR035C
  The level of expressed mRNA in the presence of chemical substance/The level of expressed mRNA in the absence of chemical substance: 2.1
Yeast gene YGR038W
  The level of expressed mRNA in the presence of chemical substance/The level of expressed mRNA in the absence of chemical substance: 1.2
Yeast gene YGR110W
  The level of expressed mRNA in the presence of chemical substance/The level of expressed mRNA in the absence of chemical substance: 3.6
Yeast gene YGR139W
  The level of expressed mRNA in the presence of chemical substance/The level of expressed mRNA in the absence of chemical substance: 0.4
Yeast gene YGR237C, incubated two hours with substance
  The level of expressed mRNA in the presence of chemical substance/The level of expressed mRNA in the absence of chemical substance: 1.6
Yeast gene YGR277C, incubated two hours with substance
  The level of expressed mRNA in the presence of chemical substance/The level of expressed mRNA in the absence of chemical substance: 1.6
Yeast gene YHL006C
  The level of expressed mRNA in the presence of chemical substance/The level of expressed mRNA in the absence of chemical substance: 1.1
Yeast gene YHR209W
  The level of expressed mRNA in the presence of chemical substance/The level of expressed mRNA in the absence of chemical substance: 2.0
Yeast gene YIL127C
  The level of expressed mRNA in the presence of chemical substance/The level of expressed mRNA in the absence of chemical substance: 0.4
Yeast gene YJL017W
  The level of expressed mRNA in the presence of chemical substance/The level of expressed mRNA in the absence of chemical substance: 1.5
Yeast gene YJL037W
  The level of expressed mRNA in the presence of chemical substance/The level of expressed mRNA in the absence of chemical substance: 1.1
Yeast gene YKL097C
  The level of expressed mRNA in the presence of chemical substance/The level of expressed mRNA in the absence of chemical substance: 0.9
Yeast gene YKL107W
  The level of expressed mRNA in the presence of chemical substance/The level of expressed mRNA in the absence of chemical substance: 1.9
Yeast gene YKR040C
  The level of expressed mRNA in the presence of chemical substance/The level of expressed mRNA in the absence of chemical substance: 0.6
Yeast gene YKR075C
  The level of expressed mRNA in the presence of chemical substance/The level of expressed mRNA in the absence of chemical substance: 3.8
Yeast gene YLR064W, incubated two hours with substance
  The level of expressed mRNA in the presence of chemical substance/The level of expressed mRNA in the absence of chemical substance: 1.6
Yeast gene YLR297W
  The level of expressed mRNA in the presence of chemical substance/The level of expressed mRNA in the absence of chemical substance: 0.8
Yeast gene YLR338W
  The level of expressed mRNA in the presence of chemical substance/The level of expressed mRNA in the absence of chemical substance: 1.2
Yeast gene YLR392C
  The level of expressed mRNA in the presence of chemical substance/The level of expressed mRNA in the absence of chemical substance: 1.4
